# Test results reported in US20150105252A1, “SUBSTITUTED PYRAZOLES AS HERBICIDES” (E I DU PONT DE NEMOURS AND COMPANY, priority 2013, published 2015).
# How the values were obtained:
# [1] = system: pigweed; test: Test C postemergence; type: in vivo, Amaranthus retroflexus; conditions: for Pigweed plant response rating: scale 0 to 100
# From the text: (§1) Seeds of plant species selected from blackgrass (Alopecurus myosuroides), ryegrass, Italian (Italian ryegrass, Lolium multiflorum), wheat (winter wheat, Triticum aestivum), galium (catchweed bedstraw, Galium aparine), corn (Zea mays), crabgrass, large (large crabgrass, Digitaria sanguinalis), foxtail, giant (giant foxtail, Setaria faberii), johnsongrass (Sorghum halepense), lambsquarters (Chenopodium album), morningglory (Ipomoea coccinea), nutsedge, yellow (yellow nutsedge, Cyperus esculentus), pigweed (redroot pigweed, Amaranthus retroflexus), ragweed (common ragweed, Ambrosia elation), soybean (Glycine max), barnyardgrass (Echinochloa crus-galli), oilseed rape (Brassica napus), waterhemp (common waterhemp, Amaranthus rudis), oat, wild (wild oat, Avena fatua), kochia (Kochia scoparia), Surinam grass (Brachiaria decumbens), foxtail, green (green foxtail, Setaria viridis), goosegrass (Eleusine indica), bromegrass, downy (downy bromegrass, Bromus tectorum), nightshade (eastern black nightshade, Solanum ptycanthum), cocklebur (common cocklebur, Xanthium strumarium), cupgrass, woolly (woolly cupgrass, Eriochloa villosa), bermudagrass (Cynodon dactylon), sunflower, (common oilseed sunflower, Helianthus annuus), Russian thistle (Salsola kali), and velvetleaf (Abutilon theophrasti) were planted into a blend of loam soil and sand and treated preemergence with test chemicals formulated in a non-phytotoxic solvent mixture which included a surfactant.
# (§2) At the same time, plants selected from these crop and weed species and also chickweed (common chickweed, Stellaria media), canarygrass (littleseed canarygrass, Phalaris minor), and deadnettle (henbit deadnettle, Lamium amplexicaule), were planted in pots containing Redi-Earth® planting medium (Scotts Company, 14111 Scottslawn Road, Marysville, Ohio 43041) comprising spaghnum peat moss, vermiculite, wetting agent and starter nutrients and treated with postemergence applications of test chemicals formulated in the same manner. Plants ranged in height from 2 to 18 cm (1- to 4-leaf stage) for postemergence treatments. Treated plants and controls were maintained in a greenhouse for 13 to 15 days, after which time all species were compared to controls and visually evaluated. Plant response ratings, summarized in Table C, are based on a scale of 0 to 100 where 0 is no effect and 100 is complete control. A dash (-) response means no test result.
# [2] = system: blackgrass; test: Test C postemergence; type: in vivo, Alopecurus myosuroides; conditions: for Blackgrass plant response rating: scale 0 to 100
# Method in brief: (§3)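 Postemergence values come from plants sprayed at the 1- to 4-leaf stage (2–18 cm) in peat moss–vermiculite medium; preemergence values from seeds treated in a loam–sand blend. Both evaluated visually against controls after 13–15 greenhouse days, scale 0–100.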
# [3] = system: ryegrass, Italian; test: Test C preemergence; type: in vivo, Lolium multiflorum; conditions: for Plant response rating (scale of 0 to 100), Ryegrass, Italian: Preemergence, 250 g ai/ha; for Ryegrass, Italian plant response rating / Plant response rating, Ryegrass, Italian: preemergence; for Plant response rating, Ryegrass, Italian: 62 g ai/ha, scale 0 to 100, 0 = no effect, 100 = complete control
# Method in brief: as §3
# [4] = system: pigweed; test: Test C preemergence; type: in vivo, Amaranthus retroflexus; conditions: for Plant response rating (scale of 0 to 100), Pigweed: Preemergence, 250 g ai/ha; for Pigweed plant response rating / Plant response rating, Pigweed: preemergence; for Plant response rating, Pigweed: 62 g ai/ha, scale 0 to 100, 0 = no effect, 100 = complete control
# Method in brief: as §3
# [5] = system: corn; test: Test A preemergence; type: in vivo, Zea mays; conditions: 0 to 100 scale
# Method in brief: (§4)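 After sowing in a sand–loam mix, pots received compound preemergence by directed soil spray, or postemergence once plants reached the one- to two-leaf stage (2–10 cm). Formulation contained surfactant in a non-phytotoxic solvent. Injury was scored visually after ~10 greenhouse days, 0–100 scale.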
# [6] = system: morningglory; test: Test C preemergence; type: in vivo, Ipomoea coccinea; conditions: for Plant response rating (scale of 0 to 100), Morningglory: Preemergence, 250 g ai/ha; for Morningglory plant response rating / Plant response rating, Morningglory: preemergence; for Plant response rating, Morningglory: 62 g ai/ha, scale 0 to 100, 0 = no effect, 100 = complete control
# Method in brief: as §3
# [7] = system: wheat; test: Test A preemergence; type: in vivo, Triticum aestivum
# Method in brief: as §4
# [8] = system: johnsongrass; test: Test C preemergence; type: in vivo, Sorghum halepense; conditions: for Plant response rating (scale of 0 to 100), Johnsongrass: Preemergence, 250 g ai/ha; for Johnsongrass plant response rating / Plant response rating, Johnsongrass: preemergence; for Plant response rating, Johnsongrass: 62 g ai/ha, scale 0 to 100, 0 = no effect, 100 = complete control
# Method in brief: as §3
# [9] = system: morningglory; test: Test A preemergence; type: in vivo, Ipomoea spp.; conditions: 0 to 100 scale
# Method in brief: as §4
# [10] = system: blackgrass; test: Test C preemergence; type: in vivo, Alopecurus myosuroides; conditions: for Plant response rating (scale of 0 to 100), Blackgrass: Preemergence, 250 g ai/ha; for Blackgrass plant response rating / Plant response rating, Blackgrass: preemergence; for Plant response rating, Blackgrass: 62 g ai/ha, scale 0 to 100, 0 = no effect, 100 = complete control
# Method in brief: as §3
# [11] = system: morningglory; test: Test C postemergence; type: in vivo, Ipomoea coccinea; conditions: for Morningglory plant response rating: scale 0 to 100
# From the text: as §1, §2
# [12] = system: ragweed; test: Test C postemergence; type: in vivo, Ambrosia elation; conditions: postemergence; for Ragweed plant response rating: 62 g ai/ha, scale 0 to 100
# From the text: as §1, §2
# [13] = postemergence, 250 g ai/ha, scale 0 to 100 (0 no effect, 100 complete control)
# [14] = postemergence, 125 g ai/ha, scale 0 to 100, 0 no effect, 100 complete control
# [15] = 31 g ai/ha, scale 0 to 100 (0 no effect, 100 complete control), 13 to 15 days
# [16] = 125 g ai/ha, scale 0 to 100, 0 is no effect, 100 is complete control
# [17] = Preemergence, 500 g ai/ha, 0 no effect, 100 complete control
# [18] = preemergence, 125 g ai/ha, visual injury, approx. 10 days
# [19] = preemergence, 500 g ai/ha, visual injury after approx. 10 days, 0 to 100 scale (0 no effect, 100 complete control)
# [20] = 250 g ai/ha, scale 0 to 100 (0 no effect, 100 complete control)
# [21] = Preemergence, 1000 g ai/ha, 0 no effect, 100 complete control
smiles,measurement,setting,value
CCONC(=O)c1cc(CC)n(Cc2cccc(OC(F)(F)F)c2)n1 [Compound 72],Pigweed plant response rating,"[1]; Postemergence, 31 g ai/ha",45
same,Pigweed plant response rating,"[1]; postemergence, 62 g ai/ha",45
same,"Plant response rating, Pigweed",[1]; [13],65
same,"Plant response rating, Pigweed",[1]; [14],65
same,Blackgrass plant response rating,"[2]; Postemergence, 31 g ai/ha",5
same,Blackgrass plant response rating,"[2]; postemergence, 62 g ai/ha",10
same,"Plant response rating, Blackgrass",[2]; [13],40
same,"Plant response rating, Blackgrass",[2]; [14],40
same,"Plant response rating (scale of 0 to 100), Ryegrass, Italian",[3],95
same,"Ryegrass, Italian plant response rating",[3]; [15],40
same,"Plant response rating, Ryegrass, Italian",[3]; 13 to 15 days,85
same,"Ryegrass, Italian plant response rating",[3]; [16],85
same,"Plant response rating (scale of 0 to 100), Pigweed",[4],100
same,Pigweed plant response rating,[4]; [15],100
same,"Plant response rating, Pigweed",[4]; 13 to 15 days,100
same,Pigweed plant response rating,[4]; [16],100
same,Corn plant response rating,[5]; [17],70
same,Corn plant response rating,[5]; [18],50
same,"Plant response rating (scale of 0 to 100), Morningglory",[6],85
same,Morningglory plant response rating,[6]; [15],15
same,"Plant response rating, Morningglory",[6]; 13 to 15 days,65
same,Morningglory plant response rating,[6]; [16],85
same,Wheat plant response rating,"[7]; preemergence, 125 g ai/ha, visual injury, 0 to 100 scale, approx. 10 days",50
same,Wheat plant response rating,[7]; [19],10
same,"Plant response rating (scale of 0 to 100), Johnsongrass",[8],75
same,Johnsongrass plant response rating,[8]; [15],40
same,"Plant response rating, Johnsongrass",[8]; 13 to 15 days,55
same,Johnsongrass plant response rating,[8]; [16],65
same,Morningglory plant response rating,[9]; [17],90
same,Morningglory plant response rating,[9]; [18],60
same,"Plant response rating (scale of 0 to 100), Blackgrass",[10],85
same,Blackgrass plant response rating,[10]; [15],45
same,"Plant response rating, Blackgrass",[10]; 13 to 15 days,80
same,Blackgrass plant response rating,[10]; [16],85
same,Morningglory plant response rating,"[11]; Postemergence, 31 g ai/ha",0
same,Morningglory plant response rating,"[11]; postemergence, 62 g ai/ha",35
same,"Plant response rating, Morningglory",[11]; [13],65
same,"Plant response rating, Morningglory",[11]; [14],60
same,Ragweed plant response rating,[12],5
same,"Plant response rating, Ragweed",[12]; [20],35
same,"Plant response rating, Ragweed","[12]; 125 g ai/ha, scale 0 to 100, 0 no effect, 100 complete control",20
Cc1cc(C(=O)NCC(F)(F)F)nn1Cc1ccnc(C(F)(F)F)c1 [Compound 74],Pigweed plant response rating,"[1]; Postemergence, 31 g ai/ha",60
same,Pigweed plant response rating,"[1]; postemergence, 62 g ai/ha",65
same,"Plant response rating, Pigweed",[1]; [13],80
same,"Plant response rating, Pigweed",[1]; [14],80
same,Blackgrass plant response rating,"[2]; Postemergence, 31 g ai/ha",0
same,Blackgrass plant response rating,"[2]; postemergence, 62 g ai/ha",0
same,"Plant response rating, Blackgrass",[2]; [13],5
same,"Plant response rating, Blackgrass",[2]; [14],5
same,"Plant response rating (scale of 0 to 100), Ryegrass, Italian",[3],80
same,"Ryegrass, Italian plant response rating",[3]; [15],5
same,"Plant response rating, Ryegrass, Italian",[3]; 13 to 15 days,5
same,"Ryegrass, Italian plant response rating",[3]; [16],50
same,"Plant response rating (scale of 0 to 100), Pigweed",[4],100
same,Pigweed plant response rating,[4]; [15],100
same,"Plant response rating, Pigweed",[4]; 13 to 15 days,100
same,Pigweed plant response rating,[4]; [16],100
same,Corn plant response rating,[5]; [21],90
same,"Plant response rating (scale of 0 to 100), Morningglory",[6],100
same,Morningglory plant response rating,[6]; [15],75
same,"Plant response rating, Morningglory",[6]; 13 to 15 days,100
same,Morningglory plant response rating,[6]; [16],100
same,Wheat plant response rating,"[7]; Preemergence, 1000 g ai/ha, 0 to 100 scale, 0 no effect, 100 complete control",100
same,Wheat plant response rating,[7]; [19],30
same,"Plant response rating (scale of 0 to 100), Johnsongrass",[8],100
same,Johnsongrass plant response rating,[8]; [15],10
same,"Plant response rating, Johnsongrass",[8]; 13 to 15 days,25
same,Johnsongrass plant response rating,[8]; [16],98
same,Morningglory plant response rating,[9]; [21],100
same,"Plant response rating (scale of 0 to 100), Blackgrass",[10],90
same,Blackgrass plant response rating,[10]; [15],10
same,"Plant response rating, Blackgrass",[10]; 13 to 15 days,85
same,Blackgrass plant response rating,[10]; [16],90
same,Morningglory plant response rating,"[11]; Postemergence, 31 g ai/ha",70
same,Morningglory plant response rating,"[11]; postemergence, 62 g ai/ha",75
same,"Plant response rating, Morningglory",[11]; [13],80
same,"Plant response rating, Morningglory",[11]; [14],75
same,Ragweed plant response rating,[12],45
same,"Plant response rating, Ragweed",[12]; [20],70
